Reference: ChEMBL document CHEMBL3046645, “Novel 1,3-diarylpyrazole acrylamides: synthesis, antiplatelet activity screening, and in silico evaluation studies” (Med Chem Res, 2013)
pIC50: −log10 of the molar value. Activity calls are given as the source filed them. The calls are words filed in the database; no cut-off is given here.

Columns and labels:
Assay type in all cases: functional
[1] = system: Platelet; test: Antiplatelet activity in human platelet-rich plasma assessed as inhibition of arachidonic acid-induced aggregation at 100 uM incubated for 5 mins prior to arachidonic acid-challenge measured for 3 mins by turbidrometric analysis relative to control
[2] = system: Platelet; test: (§1) Antiplatelet activity in human platelet-rich plasma assessed as inhibition of collagen-induced aggregation at 100 uM incubated for 5 mins prior to collagen-challenge measured for 3 mins by turbidrometric analysis relative to control
[3] = as §1
[4] = Antiplatelet activity in human platelet-rich plasma assessed as inhibition of arachidonic acid-induced aggregation incubated for 5 mins prior to arachidonic acid-challenge measured for 3 mins by turbidrometric analysis

pIC50 [4]	SMILES	inhibition [1]	inhibition [2]	inhibition at 100 µM [3] [%]
	O=C(/C=C/c1cn(-c2ccccc2)nc1-c1ccncc1)N1CCC(Cc2ccccc2)CC1	inactive	inactive	
	O=C(/C=C/c1cn(-c2ccccc2)nc1-c1ccncc1)N1CCCCC1	Active		
	CCOc1ccccc1N1CCN(C(=O)/C=C/c2cn(-c3ccccc3)nc2-c2ccncc2)CC1	inactive		42
	O=C(/C=C/c1cn(-c2ccccc2)nc1-c1ccncc1)N1CCN(c2ccc(C(F)(F)F)cc2)CC1	inactive		25
	O=C(/C=C/c1cn(-c2ccccc2)nc1-c1ccncc1)N1CCN(C(=O)C2CCCO2)CC1 (stereo not drawn)	inactive		68.9
	O=C(/C=C/c1cn(-c2ccccc2)nc1-c1ccncc1)N1CCN(c2ccccc2)CC1	inactive	inactive	
	O=C(/C=C/c1cn(-c2ccccc2)nc1-c1ccncc1)N1CCN(c2ncccn2)CC1	inactive		73.1
	Cc1cccc(N2CCN(C(=O)/C=C/c3cn(-c4ccccc4)nc3-c3ccncc3)CC2)c1C	inactive	inactive	
5.11	CC(=O)Oc1ccccc1C(=O)O [ASPIRIN]			
	Cc1ccc(N2CCN(C(=O)/C=C/c3cn(-c4ccccc4)nc3-c3ccncc3)CC2)cc1	inactive	inactive	
	O=C(O)/C=C/c1cn(-c2ccccc2)nc1-c1ccncc1	inactive	inactive	
4.52	O=C(/C=C/c1cn(-c2ccccc2)nc1-c1ccncc1)NC1CCCCC1			71.8
	O=C(/C=C/c1cn(-c2ccccc2)nc1-c1ccncc1)N1CCN(C(=O)c2ccco2)CC1	inactive		50
	O=C(/C=C/c1cn(-c2ccccc2)nc1-c1ccncc1)N1CCN(c2ccncc2)CC1	inactive		82.5
	O=C(/C=C/c1cn(-c2ccccc2)nc1-c1ccncc1)N1CCN(c2ccc(Cl)cc2)CC1	inactive	inactive	
	COc1ccc(CNC(=O)/C=C/c2cn(-c3ccccc3)nc2-c2ccncc2)cc1	inactive	inactive	
	COc1ccc(N2CCN(C(=O)/C=C/c3cn(-c4ccccc4)nc3-c3ccncc3)CC2)c(OC)c1OC	inactive	inactive	
	COc1ccccc1N1CCN(C(=O)/C=C/c2cn(-c3ccccc3)nc2-c2ccncc2)CC1	inactive	inactive	
	O=C(/C=C/c1cn(-c2ccccc2)nc1-c1ccncc1)NC1CC1	inactive	inactive	
4.69	O=C(/C=C/c1cn(-c2ccccc2)nc1-c1ccncc1)NCc1ccccc1			54.9
	O=C(/C=C/c1cn(-c2ccccc2)nc1-c1ccncc1)N1CCN(c2cccc(Cl)c2)CC1	inactive	inactive	
	O=C(/C=C/c1cn(-c2ccccc2)nc1-c1ccncc1)N1CCOCC1	Active		
	O=C(/C=C/c1cn(-c2ccccc2)nc1-c1ccncc1)N1CCN(CCOCCO)CC1	inactive	inactive	
